According to US9956192B2, “Selective histone deactylase 6 inhibitors” (H. Lee Moffitt Cancer Center and Research Institute, Inc., priority 2012, dated 2018):
Values belong to the compound of their own block, whether it stands above or below them.

Experiments:
[1] = system: B16 murine melanoma cells; assay: B16 melanoma cell growth inhibition assay (MTS); assay type: cell-based
Experimental: The following day, media was changed to that containing various concentrations of HDACi or matched DMSO vehicle concentrations diluted in complete medium done in triplicate. […] Briefly, 20 μL of reagent were added per well and incubated at 37° C. for 3 hours.

[2] = biological target: human, recombinant full-length HDAC1 (Homo sapiens (Human), UniProt Q13547); assay: HDAC inhibition assay, HDAC1; assay type: biochemical; settings: HDAC1 and HDAC6, not selective
[3] = system: acetyl-α-tubulin in B16 melanoma cells; assay: Tubulin acetylation Western blot assay; assay type: cell-based, murine; settings: 24 h, low nanomolar treatment
Experimental: (§1) […]. B16 melanoma cells were plated at 10^5 cells/well in 12 well plates and allowed to adhere overnight. A 50 mM stock of compound was then added by serial dilutions in complete medium to the indicated concentrations. Cells were incubated for 24 h under humidified conditions (37° C., 5% CO2). Wells were then washed with cold PBS, and cells were lysed in a buffer containing 10 mM Tris-HCl pH 8.0, 10% SDS, […], 100 mM DTT, and 1× protease inhibitor (Roche). Cells were lysed for 30 min on ice and then sonicated for 8 min (8 cycles of 30 s on/30 s rest). Cells were then boiled for 10 min with 6× gel loading buffer and resolved on 4-15% gradient gels and subsequently transferred onto nitrocellulose membranes. Membranes were blocked with 5% milk in PBS-T and detection of specific antigens using antibodies against acetyl-H3 and H3 (Cell Signaling), and acetyl-α-tubulin and α-tubulin (Sigma). Bands were detected by scanning blots with LI-COR Odyssey imaging system using both 700 and 800 channels.

[4] = system: acetyl-H3 in B16 melanoma cells; assay: Histone acetylation Western blot assay; assay type: cell-based, murine; settings: 24 h
Experimental: as §1

[5] = system: JAK2/STAT3 in B16 murine melanoma cells; assay: JAK2/STAT3 phosphorylation in B16 melanoma in vivo
STAT3 in APCs = assay: STAT3 phosphorylation and recruitment to IL-10 gene promotor in APCs; assay type: cell-based
Excerpt: FIG. 26 is a flow chart depicting the experimental design of the in vitro antigen-presenting studies.
Human MCL cells display an enhanced expression of HDAC6. Disruption of HDAC6 in malignant B-cells inhibits their proliferation and is associated with induction of apoptosis. Pharmacologic or genetic disruption of HDAC6 in MCL cells augment their antigen-presenting capabilities leading to better T-cell activation and restoration of function of anergic Tcells in vitro. […] Disclosed herein is the rationale to use HDAC6 specific inhibitor(s) alone or in combination with STAT3 inhibitors in MCL.

[6] = system: antigen-specific T-cell responses; assay: In vivo antigen-specific T-cell responses to vaccination; set-up: species or system mice; settings: in vivo treatment
Excerpt: Tubastatin A-treated macrophages are better activators of […] and restore the responsiveness of anergic T-cells in vitro. […] Mechanistically, Tubastatin-A disrupt […] pathway and tip the balance towards immunogenic rather than tolerogenic macrophages.

Chain of human, recombinant full-length HDAC1 (Q13547 whole entry): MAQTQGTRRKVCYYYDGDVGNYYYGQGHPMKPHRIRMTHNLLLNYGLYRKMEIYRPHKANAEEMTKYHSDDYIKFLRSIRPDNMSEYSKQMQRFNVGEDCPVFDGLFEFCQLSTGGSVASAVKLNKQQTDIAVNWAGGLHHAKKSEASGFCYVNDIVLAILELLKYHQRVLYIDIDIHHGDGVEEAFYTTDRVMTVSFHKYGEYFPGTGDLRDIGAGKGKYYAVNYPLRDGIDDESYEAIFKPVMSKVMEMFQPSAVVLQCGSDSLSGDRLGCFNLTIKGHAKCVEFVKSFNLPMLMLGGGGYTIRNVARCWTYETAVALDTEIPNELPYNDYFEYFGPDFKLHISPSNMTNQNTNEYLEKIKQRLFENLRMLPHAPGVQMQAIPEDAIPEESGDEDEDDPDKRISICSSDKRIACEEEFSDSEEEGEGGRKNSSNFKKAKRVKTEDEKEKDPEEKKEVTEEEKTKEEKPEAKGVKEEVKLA

SMILES: COc1ccccc1NC(=O)N(CCCO)Cc1ccc(C(=O)NO)cc1 [Compound 5b, N-hydroxy-4-((1-(3-hydroxypropyl)-3-(2-methoxyphenyl)ureido)methyl)-benzamide]
growth inhibition of B16 melanoma cell line (in words) [1]: performed very poorly in the cellular assay

HDAC inhibitory activity (in words) [2]: submicromolar HDAC inhibitory activity
SMILES: COc1ccccc1NC(=O)NCc1ccc(C(=O)NO)cc1 [Compound 1]

SMILES: CCCCN(Cc1ccc(C(=O)NO)cc1)C(=O)Nc1ccccc1 [Compound 5g, 4-((1-butyl-3-phenylureido)methyl)-N-hydroxybenzamide]
acetyl α-tubulin levels [3]: dose-dependant increase of acetyl α-tubulin levels
histone H3 acetylation ([4]; 1 and 10 μM): observable increase in histone H3 acetylation
histone H3 acetylation ([4]; low nanomolar treatment): without a concamanent elevation of histone H3 acetylation

SMILES: O=C(NO)c1ccc(CN(CCc2ccccc2)C(=O)Nc2ccccc2)cc1 [Compound 5h, N-hydroxy-4-((1-phenethyl-3-phenylureido)methyl)benzamide]
growth inhibition of B16 melanoma cell line (in words) [1]: capable of inhibiting the growth of B16 melanoma cell line

SMILES: CN1CCc2c(c3ccccc3n2Cc2ccc(C(=O)NO)cc2)C1 [Tubastatin A]
JAK2/STAT3 phosphorylation [5]: inhibits JAK2/STAT3 phosphorylation
STAT3 phosphorylation and recruitment to the IL-10 gene promotor (STAT3 in APCs): decreased STAT3 phosphorylation and recruitment
antigen-specific T-cell responses to vaccination [6]: enhances antigen-specific T-cell responses to vaccination
